Patent US12319752B2, “Heparin-binding cationic peptide self-assembling peptide amphiphiles useful against drug-resistant bacteria” (priority 2016, dated 2025)
Converted amounts (≈) assume the structure as drawn. Residues, ends and D or L forms follow the SMILES beside them. *: point of attachment. Palmitoyl = CCCCCCCCCCCCCCCC(=O)*

Assays:
MDR E. coli [1] = assay: Bacterial growth inhibition (growth curves, OD562, 20 h); assay type: cell-based, multidrug-resistant E. coli (MDR E. coli, ATCC #BAA-2471)
Protocol: Gram-positive (S. aureus and MRSA) and Gram-negative (E. coli and MDR E. coli) bacteria were incubated with peptide concentrations ranging from 20 to 100 μM, and time-lapsed bacterial growth was monitored for 20 hours by determining the optical density at 562 nm (O.D. 562 nm). […] At the highest concentration tested (100 μM), the time to exponential growth phase of S. aurues was delayed by about 18 h (FIG. 5B), and was prolonged by almost 13 h for MRSA (FIG. 5A), while bacteria incubated without ACA-PA entered the exponential growth phase within 4 h. Gram-positive bacteria were also susceptible to the ACA-PA even below their CMC.
The MIC values of ACA-PA towards drug-resistant bacteria were determined after 24 h of incubation (Table 2).
(§1) This assay was performed to investigate the inhibitory effects of each peptide against Gram-positive Staphylococcus aureus (S. aureus, ATCC #25923) and methicillin-resistant S. aureus (MRSA, ATCC #43300), as well as Gram-negative Escherichia coli (E. coli, ATCC #25922), and multidrug-resistant E. coli (MDR E. coli, ATCC #BAA-2471). In all experiments, solutions of each peptide at the concentrations from 20 μM to 100 μM in 3% Tryptic Soy Broth (TSB) media were freshly prepared. A single colony of bacteria was isolated from a stock agar plate and cultured overnight in 4 mL of 3% TSB on a shaking incubator set at 200 rpm and 37° C. The bacteria culture was adjusted to an optical density at 562 nm (OD562) to about 0.52 (10^9 cells/mL), and the resulting bacteria suspension was subsequently diluted to about 10^6 colony forming units (CFU) per mL in each sample. The control samples were bacteria incubated in TSB media without peptides. The bacteria were incubated inside a spectrophotometer (Spectra-Max Paradigm, Molecular Devices, Sunnyvale, CA) at 37° C. under static conditions for 20 h, and the bacterial growth curves were measured in terms of turbidity at OD562 every 2 minutes. The normalized OD562 values of samples were calculated by subtracting the […].

[2] = tested on: LPS (from Escherichia coli O111:B4); assay: LPS binding, BODIPY TR cadaverine (BC) probe displacement assay; settings: 20 μM to 100 μM peptide, 100 μg/mL LPS
Protocol: The binding of each peptide at various concentrations to LPS was determined by the capability of displacing the BC probes bound with LPS. The fluorescent BC probe was used as a probe to determine the level of peptide bound with LPS. BC probe binds to native LPS and particularly target the lipid A portion. The fluorescent intensity of BC probe decreases as it binds to LPS. […] For instance, the LPS binding factor of samples containing 60 μM of CVK-PA was as double as the 40 μM sample.
The LPS binding affinity of peptide was examined with the BODIPY TR cadaverine (BC) fluorescent probe displacement assay as previously described. Stock solution of each peptide was diluted to predetermined concentrations with 10 mM HEPES buffer (pH=7.5, Thermo Fisher Scientific, Waltham, MA, USA). […] Followed by incubation for 15 minutes in room temperature, the fluorescent intensity was measured using a spectrophotometer at an excitation wavelength of 580 nm and an emission wavelength of 620 nm. Finally, the LPS binding factor of each sample was calculated using the equation: […]
When peptides bind to LPS and displace the BC probe, fluorescence intensity of the probe is increased. LPS binding affinity of each peptide was then analyzed by the fluorescent intensity of the displaced BC probe. […]

MDR E. coli [3] = assay type: cell-based, multidrug-resistant E. coli (MDR E. coli, ATCC #BAA-2471); settings: 24 h
Protocol: as §1, with “The bacteria culture was adjusted to an optical density at 562 nm (OD562) to about 0.52 (10^9 cells/mL), and the resulting bacteria suspension was subsequently diluted to about 10^6 colony forming units (CFU) per mL in each sample. The control samples were bacteria incubated in TSB media without peptides.” left out
The minimum inhibitory concentration (MIC) of ACA-PA was tested against drug-resistant bacteria and compared with conventional penicillin-streptomycin (10,000 U/mL, Thermo Fisher Scientific, Waltham, MA, USA) as well. […] The OD562 was measured at the end of treatment. […]

CCCCCCCCCCCCCCCC(=O)N[C@H](C(=O)N[C@H](C(=O)N[C@H](C(=O)N[C@H](C(=O)N[C@@H](CCCCN)C(=O)N[C@@H](CCCCN)C(=O)N[C@@H](CCCCN)C(=O)N[C@@H](CCCCN)C(=O)NCC(=O)N[C@@H](C)C(=O)N[C@@H](CCCCN)C(=O)N[C@@H](CCCCN)C(=O)N[C@@H](C)C(=O)N[C@@H](CCCNC(=N)N)C(=O)N[C@@H](C)C(=O)N[C@@H](C)C(=O)N[C@@H](CCCCN)C(=O)N[C@@H](CCCCN)C(=O)N[C@@H](C)C(=O)N[C@@H](CCCNC(=N)N)C(=O)N[C@@H](C)C(=O)O)C(C)C)C(C)C)C(C)C)C(C)C [ACA-PA, C16-V4K4G(AKKARA)2 (SEQ ID NO: 7)] (Palmitoyl-VVVVKKKKGAKKARAAKKARA-OH; N-terminus and C-terminus assumed)
bacterial growth inhibition (MDR E. coli [1]; 20 to 100 μM, 20 h): remarkably inhibited the proliferation | bacterial proliferation (MDR E. coli [1]; concentrations higher than the CMC (60 μM to 100 μM)): significantly suppressed | bacterial growth inhibition (MDR E. coli [1]; concentrations lower than the CMC): did not significantly inhibit bacterial growth | bacterial growth (MDR E. coli [1]; over 80 μM): no bacteria growth was observed | LPS binding factor [2]: highest LPS binding capability among the peptides investigated | Minimum inhibitory concentration (MIC) (MDR E. coli [3]): 400 µg/mL (≈ 162 µM)
